According to the Deep4Chem optical property database:
Values belong to the compound of their own block, whether it stands above or below them.

Experiment: solvent given as SMILES

SMILES: CCn1c2ccsc2c2c3nsnc3c3c4sccc4n(CC)c3c21
- emission maximum (in C1CCOC1): 539 nm
- emission maximum (in CCOC(C)=O): 538 nm
- emission maximum (in CN(C)C=O): 573 nm
- emission maximum (in Cc1ccccc1): 523 nm
- emission maximum (in ClCCl): 565 nm

SMILES: c1ccc(-c2nc(-c3ccccc3)nc(-n3c4ccccc4c4cc(-n5c6ccccc6c6ccccc65)cc(-n5c6ccccc6c6ccccc65)c43)n2)cc1
- emission maximum (in C1CCOC1): 482.53 nm
- emission maximum (in Cc1ccccc1): 465.06 nm

SMILES: COc1ccc(-c2c3ccc([nH]3)c3nc(c(-c4ccc([N+](=O)[O-])cc4)c4ccc([nH]4)c4ccc([nH]4)c(-c4ccc(OC)cc4)c4ccc2o4)C=C3)cc1
- emission maximum (in C1CCOC1): 761 nm
- emission maximum (in Cc1ccccc1): 739 nm
- emission maximum (in c1ccccc1): 739 nm

SMILES: CC(C)=CCN1C(=O)c2cccc3c2c(cc2nc(C)oc23)C1=O
- emission maximum (in CCO): 412 nm

SMILES: Cc1c(C)n2c(COC(=O)c3ccccc3I)c(C)c(=O)n2c1=O
- emission maximum (in CCO): 461 nm

SMILES: CC1(C)CC(=O)c2cc(F)c(F)cc2N1
- emission maximum (in CC#N): 435 nm
- emission maximum (in CCO): 472 nm

SMILES: CCN(CC)c1ccc2cc(/C=C/C(O)=C3\CC/C(=C\c4cc5ccc(N(CC)CC)cc5oc4=O)C3=O)c(=O)oc2c1
- emission maximum (in C1COCCO1): 581 nm
- emission maximum (in CC#N): 637 nm
- emission maximum (in CC(C)=O): 613 nm
- emission maximum (in CCOC(C)=O): 589 nm
- emission maximum (in CN(C)C=O): 638 nm
- emission maximum (in CS(C)=O): 639 nm
- emission maximum (in Cc1ccccc1): 570 nm
- emission maximum (in ClC(Cl)Cl): 605 nm

SMILES: CCOC(=O)/C(C#N)=C\c1cn(-c2ccccc2)nc1-c1ccccc1
- emission maximum (in C1CCOC1): 429 nm
- emission maximum (in C1COCCO1): 408 nm
- emission maximum (in CCO): 423 nm
- emission maximum (in CCOC(C)=O): 427 nm
- emission maximum (in CN(C)C=O): 434 nm
- emission maximum (in CO): 434 nm
- emission maximum (in CS(C)=O): 440 nm
- emission maximum (in Cc1ccccc1): 407 nm
- emission maximum (in ClC(Cl)Cl): 431 nm
- emission maximum (in ClCCl): 428 nm

SMILES: COc1cc(/C=C/c2ccccc2)cc(OC)c1
- emission maximum (in C1CCCCC1): 364 nm
- emission maximum (in CC#N): 390 nm
- emission maximum (in CC(C)O): 382 nm
- emission maximum (in CCCCOCCCC): 372 nm
- emission maximum (in CCOC(C)=O): 382 nm
- emission maximum (in CCOCC): 374 nm

SMILES: CCCCC1C(=O)c2cc(Oc3ccc(C(C)(C)C)cc3)c3c4c(Oc5ccc(C(C)(C)C)cc5)cc5c6c(cc(Oc7ccc(C(C)(C)C)cc7)c(c7c(Oc8ccc(C(C)(C)C)cc8)cc(c2c37)C1=O)c64)C1=C(C5=O)c2ccc3ccccc3[n+]2[B-](F)(F)O1 (stereo unspecified)
- emission maximum (in ClCCl): 655 nm

SMILES: N#CC(C#N)=Cc1ccc2nc(C#Cc3ccc(N(c4ccc(C#Cc5nc6ccc(C=C(C#N)C#N)cc6s5)cc4)c4ccc(C#Cc5nc6ccc(C=C(C#N)C#N)cc6s5)cc4)cc3)sc2c1
- emission maximum (in Cc1ccccc1): 512 nm

SMILES: N#CSC1=CC2=C(c3ccccc3)c3cc(SC#N)c(N4CCOCC4)n3[B-](F)(F)[N+]2=C1N1CCOCC1
- emission maximum (in CC#N): 628 nm
- emission maximum (in CCCCCC): 623 nm
- emission maximum (in CCOC(C)=O): 628 nm
- emission maximum (in CO): 620 nm
- emission maximum (in ClCCl): 630 nm

SMILES: CCCCCCC(CCCCCC)N1C(=O)c2cccc3c(-c4ccc([Si](C)(C)C)cc4)ccc(c23)C1=O
- emission maximum (in CCCCCC): 406.7 nm
- emission maximum (in CCCCCCCCCCCCCC): 407 nm
- emission maximum (in CCCCCCCCCCCO): 430.6 nm
- emission maximum (in CCCCO): 434.2 nm
- emission maximum (in CN(C)C=O): 432.7 nm
- emission maximum (in Cc1ccccc1): 416.7 nm
- emission maximum (in ClC(Cl)Cl): 425.4 nm

SMILES: CN(CCO)c1ccc(/C=C/C2=CC(=C(C#N)C#N)CC(C)(C)C2)cc1
- emission maximum (in CC#N): 651 nm
- emission maximum (in CC(C)=O): 648 nm
- emission maximum (in CCCCO): 649 nm
- emission maximum (in ClC(Cl)Cl): 612 nm
- emission maximum (in ClCCl): 634 nm
- emission maximum (in c1ccccc1): 588 nm

SMILES: C1=C/C2=C(\c3ccccc3)c3c[nH]c(c3)/C(c3ccccc3)=C3/C=CC(=N3)/C(c3ccccc3)=c3/cc/c([nH]3)=C(\c3ccccc3)C1=N2
- emission maximum (in CC(=O)N(C)C): 713 nm

SMILES: CC(C)(C)c1ccc(C2=C(c3ccc(N4c5ccccc5C(C)(C)c5ccccc54)cc3)S(=O)(=O)c3c2sc(-c2ccc(N4c5ccccc5C(C)(C)c5ccccc54)cc2)c3-c2ccc(C(C)(C)C)cc2)cc1
- emission maximum (in C1CCOC1): 581 nm

SMILES: Cc1nc(-c2cc(F)ccc2O)n2c1CCCC2
- emission maximum (in ClCCl): 464 nm

SMILES: Fc1c(F)c(-n2c3ccccc3c3ccccc32)c(F)c(-n2c3ccccc3c3ccccc32)c1-c1nnc(-c2ccccc2)o1
- emission maximum (in Cc1ccccc1): 449 nm

SMILES: O=Cc1cc(O)c(C=O)cc1O
- emission maximum (in C1CCOC1): 468 nm
- emission maximum (in C1COCCO1): 468 nm
- emission maximum (in CC#N): 474 nm
- emission maximum (in CC(C)=O): 470 nm
- emission maximum (in CCCO): 491 nm
- emission maximum (in CCO): 491 nm
- emission maximum (in CN(C)C=O): 492 nm
- emission maximum (in CN(C)P(=O)(N(C)C)N(C)C): 493 nm
- emission maximum (in CNC=O): 479 nm
- emission maximum (in CO): 492 nm
- emission maximum (in CS(C)=O): 495 nm
- emission maximum (in NC=O): 490 nm

SMILES: Cc1cc2c(o1)c(C)cc1ccc(=O)oc12
- emission maximum (in C1CCCCC1): 360 nm
- emission maximum (in C1COCCO1): 380 nm
- emission maximum (in CC#N): 435 nm
- emission maximum (in CCO): 460 nm
- emission maximum (in OCC(F)(F)F): 485 nm

SMILES: c1cc2c(C3SCCCS3)c3ccc(=[N+]4CCCCC4)cc-3oc2cc1N1CCCCC1
- emission maximum (in CO): 606.31 nm

SMILES: N#Cc1c(N2CCCCC2)cc(-c2cccs2)c2c1CCc1ccccc1-2
- emission maximum (in C1CCOC1): 474 nm

SMILES: N#Cc1ccc(/C=C/c2ncc(-c3ccccc3)o2)cc1
- emission maximum (in ClCCl): 450 nm

SMILES: N#Cc1c(C#N)c(-n2c3ccccc3c3ccccc32)c(-n2c3ccccc3c3ccccc32)c(-n2c3ccccc3c3ccccc32)c1-n1c2ccccc2c2ccccc21
- emission maximum (in Cc1ccccc1): 525 nm

SMILES: Cc1cc(-c2nc(-c3ccccc3)nc(-c3ccccc3)n2)ccc1N1c2ccccc2[Si](c2ccccc2)(c2ccccc2)c2ccccc21
- emission maximum (in Cc1ccccc1): 459 nm
- emission maximum (in O=P(c1ccccc1)(c1ccccc1)c1ccccc1Oc1ccccc1P(=O)(c1ccccc1)c1ccccc1): 460 nm

SMILES: CCCCOc1c(C#N)cc2cc(C#N)c(OCCCC)c3c4c(OCCCC)c(C#N)cc5cc(C#N)c(OCCCC)c(c1c23)c54
- emission maximum (in ClCCl): 514 nm

Continued, values first:

- emission maximum (in ClCCl): 586 nm
SMILES: CC(C)(C)OC(=O)CN1CCN(c2ccc3c(-c4ccc(I)cc4)c4ccc(=[N+]5CCN(CC(=O)OC(C)(C)C)CC5)cc-4oc3c2)CC1

- emission maximum (in ClC(Cl)Cl): 544 nm
- emission maximum (in ClCCl): 578 nm
SMILES: COc1cc2cc(OC)c(-c3ccc([N+](=O)[O-])cc3)cc2cc1-c1ccc([N+](=O)[O-])cc1

- emission maximum (in ClCCl): 446 nm
SMILES: CC1(C)c2ccccc2-c2cc3c(cc21)c1ccccc1n3-c1ccc2ncccc2c1

- emission maximum (in C1CCOC1): 467 nm
SMILES: COc1ccc(C(=Cc2ccc(/C=C/c3ccc(C#N)cc3)cc2)c2ccc(OC)cc2)cc1

- emission maximum (in ClCCl): 446 nm
SMILES: CCCCn1c(-c2ccc(-c3nnc(-c4ccccc4)o3)cc2)nc2c3ccccc3c3ccccc3c21

- emission maximum (in CC#N): 498 nm
- emission maximum (in CO): 521 nm
SMILES: O=C1c2ccccc2-c2c(-c3ccccc3)c(-c3ccccc3)c(-c3ccccc3)c3cccc1c23

- emission maximum (in CC#N): 532 nm
SMILES: Cc1ccc(-c2ccc(/C=C/c3ccc(N(C)C)cc3)cn2)nc1

- emission maximum (in CCO): 503 nm
- emission maximum (in ClCCl): 500 nm
SMILES: N#Cc1cnc(-c2c3ccccc3c(-c3ncc(C#N)cn3)c3ccccc23)nc1

- emission maximum (in C1CCCCC1): 566 nm
- emission maximum (in CC1CCCCC1): 566.5 nm
- emission maximum (in CC#N): 593 nm
- emission maximum (in CCC(C)CC): 566 nm
- emission maximum (in CCCCCC): 566.2 nm
- emission maximum (in CCOC(C)=O): 585 nm
SMILES: CN(C)c1cccc2c1C(=O)c1ccccc1C2=O

- emission maximum (in ClCCl): 373 nm
SMILES: C[Si]1(C)c2ccc(-c3cccs3)cc2C=Cc2cc(-c3cccs3)ccc21

- emission maximum (in C1CCOC1): 389.5 nm
SMILES: C#Cn1c(-c2cc(-c3nc4ccc(C)cc4n3C#C)cc(-c3nc4ccc(C)cc4n3C#C)c2)nc2ccc(C)cc21

- emission maximum (in CC#N): 505 nm
SMILES: COc1ccccc1-c1nc2c([nH]1)C1=CC(=O)S[C@]1(C)[C@@]1(C)SC(=O)C=C21
